{"source": "PubChem BioAssay (NCI)", "test_in_all_cases": "NCI tumour cell line growth inhibition, 384-well format", "key": {"OVCAR-4 ovarian": {"test_system": "OVCAR-4 ovarian"}, "KM12 colon": {"test_system": "KM12 colon"}, "SW-620 colon": {"test_system": "SW-620 colon"}, "UACC-62 melanoma": {"test_system": "UACC-62 melanoma"}, "SNB-75 CNS": {"test_system": "SNB-75 CNS"}, "NCI-H522 lung": {"test_system": "NCI-H522 lung"}, "HT29 colon": {"test_system": "HT29 colon"}, "HS 578T breast": {"test_system": "HS 578T breast"}, "PC-3 prostate": {"test_system": "PC-3 prostate"}, "SF-268 CNS": {"test_system": "SF-268 CNS"}, "HOP-92 NSCLC": {"test_system": "HOP-92 NSCLC"}, "SK-MEL-2 melanoma": {"test_system": "SK-MEL-2 melanoma"}, "SN12C renal": {"test_system": "SN12C renal"}, "SNB-19 CNS": {"test_system": "SNB-19 CNS"}, "LOX IMVI melanoma": {"test_system": "LOX IMVI melanoma"}, "OVCAR-5 ovarian": {"test_system": "OVCAR-5 ovarian"}, "A549 NSCLC": {"test_system": "A549 NSCLC"}, "HCT-15 colon": {"test_system": "HCT-15 colon"}, "OVCAR-3 ovarian": {"test_system": "OVCAR-3 ovarian"}, "IGROV1 ovarian": {"test_system": "IGROV1 ovarian"}, "U251 glioblastoma": {"test_system": "U251 glioblastoma"}, "SK-MEL-28 melanoma": {"test_system": "SK-MEL-28 melanoma"}, "T-47D breast": {"test_system": "T-47D breast"}, "NCI-H23 lung": {"test_system": "NCI-H23 lung"}, "NCI-H322M lung": {"test_system": "NCI-H322M lung"}, "NCI-H226 lung": {"test_system": "NCI-H226 lung"}}, "note": "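Abbreviation: GI50, concentration required for 50% inhibition of growth. The concentration for full growth arrest is given as TGI.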"}
{"smiles": "COc1cccc2c1C(=O)c1c(O)c3c(c(O)c1C2=O)C[C@@](O)(C(C)=O)C[C@@H]3OC1CC(N)C(O)C(C)O1", "note": "(some centres undefined)", "values": [{"measurement": "GI50", "setting": "OVCAR-4 ovarian", "result": 165, "unit": "nM"}, {"measurement": "TGI", "setting": "OVCAR-4 ovarian", "result": 701, "unit": "nM"}, {"measurement": "GI50", "setting": "KM12 colon", "result": 15.9, "unit": "nM"}, {"measurement": "TGI", "setting": "KM12 colon", "result": 908, "unit": "nM"}, {"measurement": "TGI", "setting": "SW-620 colon", "result": 201, "unit": "nM"}, {"measurement": "GI50", "setting": "UACC-62 melanoma", "result": 11.5, "unit": "nM"}, {"measurement": "TGI", "setting": "UACC-62 melanoma", "result": 115, "unit": "nM"}, {"measurement": "GI50", "setting": "SNB-75 CNS", "result": 108, "unit": "nM"}, {"measurement": "TGI", "setting": "SNB-75 CNS", "result": 269, "unit": "nM"}, {"measurement": "TGI", "setting": "NCI-H522 lung", "result": 90.9, "unit": "nM"}, {"measurement": "GI50", "setting": "HT29 colon", "result": 29.2, "unit": "nM"}, {"measurement": "TGI", "setting": "HT29 colon", "result": 148, "unit": "nM"}, {"measurement": "GI50", "setting": "HS 578T breast", "result": 45.4, "unit": "nM"}, {"measurement": "TGI", "setting": "HS 578T breast", "result": 234, "unit": "nM"}, {"measurement": "GI50", "setting": "PC-3 prostate", "result": 85.9, "unit": "nM"}, {"measurement": "TGI", "setting": "PC-3 prostate", "result": 282, "unit": "nM"}, {"measurement": "GI50", "setting": "SF-268 CNS", "result": 25.4, "unit": "nM"}, {"measurement": "TGI", "setting": "SF-268 CNS", "result": 181, "unit": "nM"}, {"measurement": "GI50", "setting": "HOP-92 NSCLC", "result": 60, "unit": "nM"}, {"measurement": "TGI", "setting": "HOP-92 NSCLC", "result": 3140, "unit": "nM"}, {"measurement": "GI50", "setting": "SK-MEL-2 melanoma", "result": 71, "unit": "nM"}, {"measurement": "TGI", "setting": "SK-MEL-2 melanoma", "result": 142, "unit": "nM"}, {"measurement": "GI50", "setting": "SN12C renal", "result": 24.2, "unit": "nM"}, {"measurement": "TGI", "setting": "SN12C renal", "result": 160, "unit": "nM"}, {"measurement": "GI50", "setting": "SNB-19 CNS", "result": 31.8, "unit": "nM"}, {"measurement": "TGI", "setting": "SNB-19 CNS", "result": 13100, "unit": "nM"}, {"measurement": "GI50", "setting": "LOX IMVI melanoma", "result": 19.3, "unit": "nM"}, {"measurement": "TGI", "setting": "LOX IMVI melanoma", "result": 135, "unit": "nM"}, {"measurement": "GI50", "setting": "OVCAR-5 ovarian", "result": 105, "unit": "nM"}, {"measurement": "TGI", "setting": "OVCAR-5 ovarian", "result": 325, "unit": "nM"}, {"measurement": "GI50", "setting": "A549 NSCLC", "result": 36.9, "unit": "nM"}, {"measurement": "TGI", "setting": "A549 NSCLC", "result": 170, "unit": "nM"}, {"measurement": "GI50", "setting": "HCT-15 colon", "result": 51.7, "unit": "nM"}, {"measurement": "TGI", "setting": "HCT-15 colon", "result": 1010, "unit": "nM"}, {"measurement": "GI50", "setting": "OVCAR-3 ovarian", "result": 78.1, "unit": "nM"}, {"measurement": "TGI", "setting": "OVCAR-3 ovarian", "result": 566, "unit": "nM"}, {"measurement": "GI50", "setting": "IGROV1 ovarian", "result": 118, "unit": "nM"}, {"measurement": "TGI", "setting": "IGROV1 ovarian", "result": 281, "unit": "nM"}, {"measurement": "GI50", "setting": "U251 glioblastoma", "result": 10, "unit": "nM"}, {"measurement": "TGI", "setting": "U251 glioblastoma", "result": 1080, "unit": "nM"}, {"measurement": "GI50", "setting": "SK-MEL-28 melanoma", "result": 103, "unit": "nM"}, {"measurement": "TGI", "setting": "SK-MEL-28 melanoma", "result": 229, "unit": "nM"}, {"measurement": "GI50", "setting": "T-47D breast", "result": 36.8, "unit": "nM"}, {"measurement": "TGI", "setting": "T-47D breast", "result": 2140, "unit": "nM"}, {"measurement": "GI50", "setting": "NCI-H23 lung", "result": 21.9, "unit": "nM"}, {"measurement": "TGI", "setting": "NCI-H23 lung", "result": 69.3, "unit": "nM"}, {"measurement": "GI50", "setting": "NCI-H322M lung", "result": 152, "unit": "nM"}, {"measurement": "TGI", "setting": "NCI-H322M lung", "result": 433, "unit": "nM"}, {"measurement": "GI50", "setting": "NCI-H226 lung", "result": 33.5, "unit": "nM"}]}
